Source: BindingDB's records for doi:10.1016/j.bioorg.2016.07.011 (Universiti Teknologi Mara (Uitm), 2016)

The compounds below were run against Carbonic anhydrase 2 (Bos taurus, UniProt P00921) (assay: Carbonic Anhydrase (bCAII) Inhibition Assay). Settings: pH 7.2.
Protocol: This was assay performed using buffer containing Tris and HEPES at the pH of 7.2-7.9 and a total concentration of 20 mM. 96-well plates were filled with 140 µL of Tris-HEPES solution, 20 µL of bovine erythrocyte carbonic anhydrase II solution (0.1-0.2 mg/2000 mL), and 20 µL of 0.7 mM para-nitrophenyl acetate (diluted in ethanol). Test compounds were incubated at 25-28 °C for 15 min prior to addition of para-nitrophenyl acetate, which starts the reaction. The reaction was allowed to taking place for 30 min at 25-28 °C. All compounds tested in triplicate at different concentration. The amount of product that forms during thereaction monitored at 400 nm after 30 min using SPECTRA-max 340 spectrophotometer, Molecular Devices (USA).

Carbonic anhydrase 2, sequence (P00921 whole entry): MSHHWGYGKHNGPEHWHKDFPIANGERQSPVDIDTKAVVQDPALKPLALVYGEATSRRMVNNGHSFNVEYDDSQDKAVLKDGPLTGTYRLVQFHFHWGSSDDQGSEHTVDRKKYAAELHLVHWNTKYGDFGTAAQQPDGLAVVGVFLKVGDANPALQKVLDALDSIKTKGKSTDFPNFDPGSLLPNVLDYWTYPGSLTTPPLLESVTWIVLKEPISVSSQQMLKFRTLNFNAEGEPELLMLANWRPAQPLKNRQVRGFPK

Structure (SMILES) | IC50 [µM]
O=S(=O)(Nc1ccc(C(c2c[nH]c3ccccc23)c2c[nH]c3ccccc23)cc1)c1cc(Cl)cc(Cl)c1O [3,5-Dichloro-N-(4-(di(1H-indol-3-yl)methyl)phenyl)-2-hydroxybenzenesulfonamide (3k)] | 58.1
O=[N+]([O-])c1ccc(S(=O)(=O)Nc2ccc(C(c3c[nH]c4ccc(Br)cc34)c3c[nH]c4ccc(Br)cc34)cc2)c([N+](=O)[O-])c1 [N-(4-(bis(5-bromo-1H-indol-3-yl)methyl)phenyl)-2,4-dinitrobenzenesulfonamide (4g)] | 28.9
Cc1ccc([N+](=O)[O-])cc1S(=O)(=O)Nc1ccc(C(c2c[nH]c3ccc(Br)cc23)c2c[nH]c3ccc(Br)cc23)cc1 [N-(4-(bis(5-bromo-1H-indol-3-yl)methyl)phenyl)-2-methyl-5-nitrobenzenesulfonamide (4i)] | 44.3
O=[N+]([O-])c1ccccc1S(=O)(=O)Nc1ccc(C(c2c[nH]c3ccc(Br)cc23)c2c[nH]c3ccc(Br)cc23)cc1 [N-(4-(bis(5-bromo-1H-indol-3-yl)methyl)phenyl)-2-nitrobenzenesulfonamide (4d)] | 65.2
O=S(=O)(Nc1ccc(C(c2c[nH]c3ccc(Br)cc23)c2c[nH]c3ccc(Br)cc23)cc1)c1cc(Cl)cc(Cl)c1O [N-(4-(bis(5-bromo-1H-indol-3-yl)methyl)phenyl)-3,5-dichloro-2-hydroxybenzenesulfonamide (4k)] | 18.8
O=[N+]([O-])c1cc(S(=O)(=O)Nc2ccc(C(c3c[nH]c4ccc(Br)cc34)c3c[nH]c4ccc(Br)cc34)cc2)ccc1Cl [N-(4-(bis(5-bromo-1H-indol-3-yl)methyl)phenyl)-4-chloro-3-nitrobenzenesulfonamide (4h)] | 83.1
O=[N+]([O-])c1ccc(S(=O)(=O)Nc2ccc(C(c3c[nH]c4ccc(Br)cc34)c3c[nH]c4ccc(Br)cc34)cc2)cc1 [N-(4-(bis(5-bromo-1H-indol-3-yl)methyl)phenyl)-4-nitrobenzenesulfonamide (4b)] | 63.9
O=S(=O)(Nc1ccc(C(c2c[nH]c3ccc(Br)cc23)c2c[nH]c3ccc(Br)cc23)cc1)c1ccc2ccccc2c1 [N-(4-(bis(5-bromo-1H-indol-3-yl)methyl)phenyl)naphthalene-2-sulfonamide (4c)] | 90.4
O=[N+]([O-])c1ccc(S(=O)(=O)Nc2ccc(C(c3c[nH]c4ccc(Cl)cc34)c3c[nH]c4ccc(Cl)cc34)cc2)c([N+](=O)[O-])c1 [N-(4-(bis(5-chloro-1H-indol-3-yl)methyl)phenyl)-2,4-dinitrobenzenesulfonamide (5g)] | 15.6
O=[N+]([O-])c1ccccc1S(=O)(=O)Nc1ccc(C(c2c[nH]c3ccccc23)c2c[nH]c3ccccc23)cc1 [N-(4-(di(1H-indol-3-yl)methyl)phenyl)-2-nitrobenzenesulfonamide (3d)] | 35.9

Other lines, results leading:

IC50 [µM] | Structure (SMILES)
40.3 | O=S(=O)(Nc1ccc(C(c2c[nH]c3ccc(Br)cc23)c2c[nH]c3ccc(Br)cc23)cc1)c1cc(Cl)c(Cl)cc1Cl [N-(4-(bis(5-bromo-1H-indol-3-yl)methyl)phenyl)-2,4,5-trichlorobenzenesulfonamide (4f)]
16.3 | O=S(=O)(Nc1ccc(C(c2c[nH]c3ccc(Cl)cc23)c2c[nH]c3ccc(Cl)cc23)cc1)c1cc(Cl)c(Cl)cc1Cl [N-(4-(bis(5-chloro-1H-indol-3-yl)methyl)phenyl)-2,4,5-trichlorobenzenesulfonamide (5f)]
14.3 | Cc1ccc([N+](=O)[O-])cc1S(=O)(=O)Nc1ccc(C(c2c[nH]c3ccc(Cl)cc23)c2c[nH]c3ccc(Cl)cc23)cc1 [N-(4-(bis(5-chloro-1H-indol-3-yl)methyl)phenyl)-2-methyl-5-nitrobenzenesulfonamide (5i)]
44.5 | O=[N+]([O-])c1ccccc1S(=O)(=O)Nc1ccc(C(c2c[nH]c3ccc(Cl)cc23)c2c[nH]c3ccc(Cl)cc23)cc1 [N-(4-(bis(5-chloro-1H-indol-3-yl)methyl)phenyl)-2-nitrobenzenesulfonamide (5d)]
20.2 | O=S(=O)(Nc1ccc(C(c2c[nH]c3ccc(Cl)cc23)c2c[nH]c3ccc(Cl)cc23)cc1)c1cc(Cl)cc(Cl)c1O [N-(4-(bis(5-chloro-1H-indol-3-yl)methyl)phenyl)-3,5-dichloro-2-hydroxybenzenesulfonamide (5k)]
68.9 | O=[N+]([O-])c1cc(S(=O)(=O)Nc2ccc(C(c3c[nH]c4ccc(Cl)cc34)c3c[nH]c4ccc(Cl)cc34)cc2)ccc1Cl [N-(4-(bis(5-chloro-1H-indol-3-yl)methyl)phenyl)-4-chloro-3-nitrobenzenesulfonamide (5h)]
45.5 | O=S(=O)(Nc1ccc(C(c2c[nH]c3ccc(Cl)cc23)c2c[nH]c3ccc(Cl)cc23)cc1)c1ccc(Cl)cc1 [N-(4-(bis(5-chloro-1H-indol-3-yl)methyl)phenyl)-4-chlorobenzenesulfonamide (5l)]
176 | COc1ccc(Cl)cc1S(=O)(=O)Nc1ccc(C(c2c[nH]c3ccc(Cl)cc23)c2c[nH]c3ccc(Cl)cc23)cc1 [N-(4-(bis(5-chloro-1H-indol-3-yl)methyl)phenyl)-5-chloro-2-methoxybenzene sulfonamide (5e)]
